System: 885724-159-R-J1-PDC complex spheroid viability
Assay: Anticancer human tumor 885724-159-R-J1-PDC patient-derived pancreatic adenocarcinoma cell line growth inhibition [POLQ]
Details: for IC50: curve of first compound; for viability, T/C: stronger effect = lower value
Method in brief: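 Three-cell-type spheroids modelling solid tumor plus stroma served as the readout system; POL inhibitors were tested individually and in combination, concentration ranges set by clinical Cmax where known.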

[1] = second compound 0.0316 µM, first compound 0.0316 µM
[2] = second compound 0.0316 µM, first compound 0.1 µM
[3] = second compound 0.0316 µM, first compound 0.316 µM
[4] = second compound 0.0316 µM, first compound 1 µM
[5] = second compound 0.0316 µM, first compound 3.16 µM
[6] = second compound 0.0316 µM, first compound 10 µM
[7] = second compound 0.1 µM, first compound 0.0316 µM
[8] = second compound 0.1 µM, first compound 0.1 µM
[9] = second compound 0.1 µM, first compound 0.316 µM
[10] = second compound 0.1 µM, first compound 1 µM
[11] = second compound 0.1 µM, first compound 3.16 µM
[12] = second compound 0.1 µM, first compound 10 µM
[13] = second compound 0.316 µM, first compound 0.0316 µM
[14] = second compound 0.316 µM, first compound 0.1 µM
[15] = second compound 0.316 µM, first compound 0.316 µM
[16] = second compound 0.316 µM, first compound 1 µM
[17] = second compound 0.316 µM, first compound 3.16 µM
[18] = second compound 0.316 µM, first compound 10 µM
[19] = second compound 1 µM, first compound 0.0316 µM
[20] = second compound 1 µM, first compound 0.1 µM
[21] = second compound 1 µM, first compound 0.316 µM
[22] = second compound 1 µM, first compound 1 µM
[23] = second compound 1 µM, first compound 3.16 µM
[24] = second compound 1 µM, first compound 10 µM
[25] = second compound 3.16 µM, first compound 0.0316 µM
[26] = second compound 3.16 µM, first compound 0.1 µM
[27] = second compound 3.16 µM, first compound 0.316 µM
[28] = second compound 3.16 µM, first compound 1 µM
[29] = second compound 3.16 µM, first compound 3.16 µM
[30] = second compound 3.16 µM, first compound 10 µM
[31] = second compound 10 µM, first compound 0.0316 µM
[32] = second compound 10 µM, first compound 0.1 µM
[33] = second compound 10 µM, first compound 0.316 µM
[34] = second compound 10 µM, first compound 1 µM
[35] = second compound 10 µM, first compound 3.16 µM
[36] = second compound 10 µM, first compound 10 µM
[37] = second compound 0.0316 µM, first compound 0.000316 µM
[38] = second compound 0.0316 µM, first compound 0.001 µM
[39] = second compound 0.0316 µM, first compound 0.00316 µM
[40] = second compound 0.0316 µM, first compound 0.01 µM
[41] = second compound 0.1 µM, first compound 0.000316 µM
[42] = second compound 0.1 µM, first compound 0.001 µM
[43] = second compound 0.1 µM, first compound 0.00316 µM
[44] = second compound 0.1 µM, first compound 0.01 µM
[45] = second compound 0.316 µM, first compound 0.000316 µM
[46] = second compound 0.316 µM, first compound 0.001 µM
[47] = second compound 0.316 µM, first compound 0.00316 µM
[48] = second compound 0.316 µM, first compound 0.01 µM
[49] = second compound 1 µM, first compound 0.000316 µM
[50] = second compound 1 µM, first compound 0.001 µM
[51] = second compound 1 µM, first compound 0.00316 µM
[52] = second compound 1 µM, first compound 0.01 µM
[53] = second compound 3.16 µM, first compound 0.000316 µM
[54] = second compound 3.16 µM, first compound 0.001 µM
[55] = second compound 3.16 µM, first compound 0.00316 µM
[56] = second compound 3.16 µM, first compound 0.01 µM
[57] = second compound 10 µM, first compound 0.000316 µM
[58] = second compound 10 µM, first compound 0.001 µM
[59] = second compound 10 µM, first compound 0.00316 µM
[60] = second compound 10 µM, first compound 0.01 µM
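Also: spheroids exposed to compounds for 7 days.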

Structure (SMILES): COc1cccc2c1C(=O)c1c(O)c3c(c(O)c1C2=O)CC(O)(C(=O)CO)CC3OC1CC(N)C(O)C(C)O1 (stereo not drawn) + Nc1ccc(C#CCN(C(=O)Cc2ncc(C(F)(F)F)cc2C(F)(F)F)c2ccc(F)cc2)nn1
- IC50 (second compound 0.0316 µM): 158 nM
- IC50 (second compound 0.1 µM): 198 nM
- IC50 (second compound 0.316 µM): 150 nM
- IC50 (second compound 1 µM): 173 nM
- IC50 (second compound 3.16 µM): 163 nM
- IC50 (second compound 10 µM): 168 nM
- viability, T/C [1]: 66.2%
- viability, T/C [2]: 61%
- viability, T/C [3]: 34%
- viability, T/C [4]: 13.8%
- viability, T/C [5]: 5.73%
- viability, T/C [6]: 6.16%
- viability, T/C [7]: 75.9%
- viability, T/C [8]: 64.5%
- viability, T/C [9]: 40.4%
- viability, T/C [10]: 12.2%
- viability, T/C [11]: 6.2%
- viability, T/C [12]: 6.34%
- viability, T/C [13]: 72.5%
- viability, T/C [14]: 55.7%
- viability, T/C [15]: 37.7%
- viability, T/C [16]: 14.6%
- viability, T/C [17]: 5.39%
- viability, T/C [18]: 7.18%
- viability, T/C [19]: 76.7%
- viability, T/C [20]: 60.8%
- viability, T/C [21]: 38.1%
- viability, T/C [22]: 10.1%
- viability, T/C [23]: 6.54%
- viability, T/C [24]: 7.34%
- viability, T/C [25]: 74.9%
- viability, T/C [26]: 60.6%
- viability, T/C [27]: 35.2%
- viability, T/C [28]: 12.9%
- viability, T/C [29]: 5.75%
- viability, T/C [30]: 7.58%
- viability, T/C [31]: 70.8%
- viability, T/C [32]: 61.1%
- viability, T/C [33]: 36.1%
- viability, T/C [34]: 11.3%
- viability, T/C [35]: 5.42%
- viability, T/C [36]: 5.67%

Structure (SMILES): COc1cc(C2c3cc4c(cc3C(OC3OC5COC(C)OC5C(O)C3O)C3COC(=O)C23)OCO4)cc(OC)c1O (stereo not drawn) + Nc1ccc(C#CCN(C(=O)Cc2ncc(C(F)(F)F)cc2C(F)(F)F)c2ccc(F)cc2)nn1
- IC50 (second compound 0.0316 µM): > 10000 nM
- IC50 (second compound 0.1 µM): > 10000 nM
- IC50 (second compound 0.316 µM): > 10000 nM
- IC50 (second compound 1 µM): > 10000 nM
- IC50 (second compound 3.16 µM): > 10000 nM
- IC50 (second compound 10 µM): > 10000 nM
- viability, T/C [1]: 107%
- viability, T/C [2]: 86.6%
- viability, T/C [3]: 87.4%
- viability, T/C [4]: 71%
- viability, T/C [5]: 57.8%
- viability, T/C [6]: 55%
- viability, T/C [7]: 104%
- viability, T/C [8]: 89.4%
- viability, T/C [9]: 82.2%
- viability, T/C [10]: 69.4%
- viability, T/C [11]: 61.1%
- viability, T/C [12]: 53.2%
- viability, T/C [13]: 103%
- viability, T/C [14]: 87.2%
- viability, T/C [15]: 76.1%
- viability, T/C [16]: 66.3%
- viability, T/C [17]: 58.2%
- viability, T/C [18]: 50.6%
- viability, T/C [19]: 89.7%
- viability, T/C [20]: 85.7%
- viability, T/C [21]: 76.9%
- viability, T/C [22]: 69.6%
- viability, T/C [23]: 53.9%
- viability, T/C [24]: 53.5%
- viability, T/C [25]: 87.8%
- viability, T/C [26]: 87.9%
- viability, T/C [27]: 82.6%
- viability, T/C [28]: 81%
- viability, T/C [29]: 56.1%
- viability, T/C [30]: 50.9%
- viability, T/C [31]: 95.1%
- viability, T/C [32]: 94.3%
- viability, T/C [33]: 82.4%
- viability, T/C [34]: 74.1%
- viability, T/C [35]: 62.8%
- viability, T/C [36]: 52.4%

Structure (SMILES): Cn1ncnc1[C@H]1c2n[nH]c(=O)c3cc(F)cc(c23)N[C@@H]1c1ccc(F)cc1 + Cc1cccc(N(C)C(=O)C2C(O)CCN2c2nc(C)cc(C(F)(F)F)c2C#N)c1
- IC50 (second compound 0.0316 µM): > 100 nM
- IC50 (second compound 0.1 µM): > 100 nM
- IC50 (second compound 0.316 µM): > 100 nM
- IC50 (second compound 1 µM): > 100 nM
- IC50 (second compound 3.16 µM): > 100 nM
- IC50 (second compound 10 µM): > 100 nM
- viability, T/C [37]: 97.2%
- viability, T/C [38]: 86.9%
- viability, T/C [39]: 96.1%
- viability, T/C [40]: 86.3%
- viability, T/C [1]: 93.6%
- viability, T/C [2]: 87.5%
- viability, T/C [41]: 96.9%
- viability, T/C [42]: 95%
- viability, T/C [43]: 92.9%
- viability, T/C [44]: 91.7%
- viability, T/C [7]: 99.9%
- viability, T/C [8]: 87.8%
- viability, T/C [45]: 112%
- viability, T/C [46]: 97.1%
- viability, T/C [47]: 93.2%
- viability, T/C [48]: 93.5%
- viability, T/C [13]: 100%
- viability, T/C [14]: 86.4%
- viability, T/C [49]: 98.5%
- viability, T/C [50]: 101%
- viability, T/C [51]: 89.2%
- viability, T/C [52]: 84.5%
- viability, T/C [19]: 92.9%
- viability, T/C [20]: 88.5%
- viability, T/C [53]: 98.3%
- viability, T/C [54]: 101%
- viability, T/C [55]: 86.4%
- viability, T/C [56]: 89.6%
- viability, T/C [25]: 88.6%
- viability, T/C [26]: 84.7%
- viability, T/C [57]: 93.7%
- viability, T/C [58]: 95.9%
- viability, T/C [59]: 98.1%
- viability, T/C [60]: 94.4%
- viability, T/C [31]: 94.1%
- viability, T/C [32]: 80%

Structure (SMILES): CC[C@@]1(O)C(=O)OCc2c1cc1n(c2=O)Cc2cc3c(CN(C)C)c(O)ccc3nc2-1 + COC1C(OC(N)=O)C(O)C(Oc2ccc3c(O)c(NC(=O)c4ccc(O)c(CC=C(C)C)c4)c(=O)oc3c2C)OC1(C)C
- IC50 (second compound 0.0316 µM): > 100 nM
- IC50 (second compound 0.1 µM): 94.7 nM
- IC50 (second compound 0.316 µM): > 100 nM
- IC50 (second compound 1 µM): > 100 nM
- IC50 (second compound 3.16 µM): > 100 nM
- IC50 (second compound 10 µM): > 100 nM
- viability, T/C [37]: 102%
- viability, T/C [38]: 101%
- viability, T/C [39]: 84%
- viability, T/C [40]: 98.1%
- viability, T/C [1]: 76.2%
- viability, T/C [2]: 51.3%
- viability, T/C [41]: 111%
- viability, T/C [42]: 117%
- viability, T/C [43]: 97.6%
- viability, T/C [44]: 97%
- viability, T/C [7]: 76.7%
- viability, T/C [8]: 48.3%
- viability, T/C [45]: 94.4%
- viability, T/C [46]: 101%
- viability, T/C [47]: 94.4%
- viability, T/C [48]: 87.2%
- viability, T/C [13]: 73.2%
- viability, T/C [14]: 54.4%
- viability, T/C [49]: 104%
- viability, T/C [50]: 94.6%
- viability, T/C [51]: 93.7%
- viability, T/C [52]: 95.3%
- viability, T/C [19]: 76.2%
- viability, T/C [20]: 56.1%
- viability, T/C [53]: 98.5%
- viability, T/C [54]: 104%
- viability, T/C [55]: 97%
- viability, T/C [56]: 84.3%
- viability, T/C [25]: 77.3%
- viability, T/C [26]: 55.1%
- viability, T/C [57]: 109%
- viability, T/C [58]: 94.5%
- viability, T/C [59]: 94.4%
- viability, T/C [60]: 79.2%
- viability, T/C [31]: 66.1%
- viability, T/C [32]: 50.9%

From PubChem BioAssay AID1963832 (Molecular Pharmacology Branch, DTP, NCI, 2024)
